Consider 1 molecule from ChEMBL document CHEMBL4330132, “5-Keto-3-cyano-2,4-diaminothiophenes as selective maternal embryonic leucine zipper kinase inhibitors” (Bioorg Med Chem Lett, 2019).

Experiment [1] deals with Protein kinase C eta type (Homo sapiens) (UniProt P24723). Briefly: Binding affinity to wild-type human partial length PRKCH (S324 to P683 residues) expressed in bacterial expression system assessed as residual binding level at 1 uM by Kinomescan method relative to control.
Experiment [2] has as its target TRAF2 and NCK-interacting protein kinase (Homo sapiens) (UniProt Q9UKE5). As to the kind of experiment: Binding affinity to wild-type human partial length TNIK (D4 to K311 residues) expressed in bacterial expression system assessed as residual binding level at 1 uM by Kinomescan method relative to control.
The target of experiment [3] is Serine/threonine-protein kinase 10 (Homo sapiens) (UniProt O94804). Briefly: Binding affinity to wild-type human partial length LOK (E16 to V314 residues) expressed in bacterial expression system assessed as residual binding level at 1 uM by Kinomescan method relative to control.
Sequence of Serine/threonine-protein kinase 10 (Homo sapiens) (O94804 whole entry, looked up, the tested form may be a part): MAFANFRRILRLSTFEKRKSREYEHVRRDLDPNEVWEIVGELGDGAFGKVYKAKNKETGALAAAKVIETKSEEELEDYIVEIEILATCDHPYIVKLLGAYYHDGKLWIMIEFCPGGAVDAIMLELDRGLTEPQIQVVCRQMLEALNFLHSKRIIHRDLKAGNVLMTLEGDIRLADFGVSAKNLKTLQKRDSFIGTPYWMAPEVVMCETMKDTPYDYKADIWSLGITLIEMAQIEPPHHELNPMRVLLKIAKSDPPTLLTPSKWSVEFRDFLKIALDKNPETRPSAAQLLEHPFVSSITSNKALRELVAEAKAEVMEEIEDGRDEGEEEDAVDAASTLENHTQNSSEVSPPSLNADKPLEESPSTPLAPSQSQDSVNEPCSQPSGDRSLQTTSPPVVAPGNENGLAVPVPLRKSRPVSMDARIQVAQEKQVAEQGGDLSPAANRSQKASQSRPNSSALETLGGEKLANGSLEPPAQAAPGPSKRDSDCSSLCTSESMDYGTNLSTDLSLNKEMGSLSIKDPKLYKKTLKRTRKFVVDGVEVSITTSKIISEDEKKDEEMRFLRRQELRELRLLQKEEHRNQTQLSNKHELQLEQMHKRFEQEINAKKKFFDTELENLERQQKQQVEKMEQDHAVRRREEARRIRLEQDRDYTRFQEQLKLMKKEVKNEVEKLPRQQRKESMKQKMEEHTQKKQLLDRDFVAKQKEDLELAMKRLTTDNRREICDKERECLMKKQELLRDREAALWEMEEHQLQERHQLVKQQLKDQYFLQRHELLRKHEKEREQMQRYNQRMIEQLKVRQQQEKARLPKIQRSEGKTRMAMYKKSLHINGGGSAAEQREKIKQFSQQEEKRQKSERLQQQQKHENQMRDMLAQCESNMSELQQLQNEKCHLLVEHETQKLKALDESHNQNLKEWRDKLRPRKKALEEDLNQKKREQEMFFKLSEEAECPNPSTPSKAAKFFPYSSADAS
Experiment [4] addresses Serine/threonine-protein kinase STK11 (Homo sapiens) (UniProt Q15831). Briefly: Binding affinity to wild-type human full length LKB1 (M1 to Q433 residues) expressed in bacterial expression system assessed as residual binding level at 1 uM by Kinomescan method relative to control.
Experiment [5] addresses Phosphorylase b kinase gamma catalytic chain, liver/testis isoform (Homo sapiens) (UniProt P15735). As to the kind of experiment: Binding affinity to wild-type human partial length PHKG2 (M1 to W300 residues) expressed in bacterial expression system assessed as residual binding level at 1 uM by Kinomescan method relative to control.
Experiment [6] addresses Serine/threonine-protein kinase MARK2 (Homo sapiens) (UniProt Q7KZI7). As to the kind of experiment: Binding affinity to wild-type human partial length MARK2 (M1 to R450 residues) expressed in bacterial expression system assessed as residual binding level at 1 uM by Kinomescan method relative to control.
In experiment [7] the target is cGMP-dependent protein kinase 1 (Homo sapiens) (UniProt Q13976). Briefly: Binding affinity to wild-type human partial length PRKG1 (L339 to F686 residues) expressed in bacterial expression system assessed as residual binding level at 1 uM by Kinomescan method relative to control.
Experiment [8] has as its target Serine/threonine-protein kinase tousled-like 1 (Homo sapiens) (UniProt Q9UKI8). As to the kind of experiment: Binding affinity to wild-type human partial length TLK1 (K447 to A754 residues) expressed in bacterial expression system assessed as residual binding level at 1 uM by Kinomescan method relative to control.
In experiment [9] the target is Phosphatidylinositol 4,5-bisphosphate 3-kinase catalytic subunit gamma isoform (Homo sapiens) (UniProt P48736). Briefly: Binding affinity to wild-type human partial length PIK3CG (S144 to A1102 residues) expressed in mammalian expression system assessed as residual binding level at 1 uM by Kinomescan method relative to control.
In experiment [10] the target is Receptor tyrosine-protein kinase erbB-4 (Homo sapiens) (UniProt Q15303). As to the kind of experiment: Binding affinity to wild-type human partial length ERBB4 (L690 to K994 residues) expressed in bacterial expression system assessed as residual binding level at 1 uM by Kinomescan method relative to control.
Sequence of Receptor tyrosine-protein kinase erbB-4 (Homo sapiens) (Q15303 whole entry, the tested form may be a part, canonical isoform): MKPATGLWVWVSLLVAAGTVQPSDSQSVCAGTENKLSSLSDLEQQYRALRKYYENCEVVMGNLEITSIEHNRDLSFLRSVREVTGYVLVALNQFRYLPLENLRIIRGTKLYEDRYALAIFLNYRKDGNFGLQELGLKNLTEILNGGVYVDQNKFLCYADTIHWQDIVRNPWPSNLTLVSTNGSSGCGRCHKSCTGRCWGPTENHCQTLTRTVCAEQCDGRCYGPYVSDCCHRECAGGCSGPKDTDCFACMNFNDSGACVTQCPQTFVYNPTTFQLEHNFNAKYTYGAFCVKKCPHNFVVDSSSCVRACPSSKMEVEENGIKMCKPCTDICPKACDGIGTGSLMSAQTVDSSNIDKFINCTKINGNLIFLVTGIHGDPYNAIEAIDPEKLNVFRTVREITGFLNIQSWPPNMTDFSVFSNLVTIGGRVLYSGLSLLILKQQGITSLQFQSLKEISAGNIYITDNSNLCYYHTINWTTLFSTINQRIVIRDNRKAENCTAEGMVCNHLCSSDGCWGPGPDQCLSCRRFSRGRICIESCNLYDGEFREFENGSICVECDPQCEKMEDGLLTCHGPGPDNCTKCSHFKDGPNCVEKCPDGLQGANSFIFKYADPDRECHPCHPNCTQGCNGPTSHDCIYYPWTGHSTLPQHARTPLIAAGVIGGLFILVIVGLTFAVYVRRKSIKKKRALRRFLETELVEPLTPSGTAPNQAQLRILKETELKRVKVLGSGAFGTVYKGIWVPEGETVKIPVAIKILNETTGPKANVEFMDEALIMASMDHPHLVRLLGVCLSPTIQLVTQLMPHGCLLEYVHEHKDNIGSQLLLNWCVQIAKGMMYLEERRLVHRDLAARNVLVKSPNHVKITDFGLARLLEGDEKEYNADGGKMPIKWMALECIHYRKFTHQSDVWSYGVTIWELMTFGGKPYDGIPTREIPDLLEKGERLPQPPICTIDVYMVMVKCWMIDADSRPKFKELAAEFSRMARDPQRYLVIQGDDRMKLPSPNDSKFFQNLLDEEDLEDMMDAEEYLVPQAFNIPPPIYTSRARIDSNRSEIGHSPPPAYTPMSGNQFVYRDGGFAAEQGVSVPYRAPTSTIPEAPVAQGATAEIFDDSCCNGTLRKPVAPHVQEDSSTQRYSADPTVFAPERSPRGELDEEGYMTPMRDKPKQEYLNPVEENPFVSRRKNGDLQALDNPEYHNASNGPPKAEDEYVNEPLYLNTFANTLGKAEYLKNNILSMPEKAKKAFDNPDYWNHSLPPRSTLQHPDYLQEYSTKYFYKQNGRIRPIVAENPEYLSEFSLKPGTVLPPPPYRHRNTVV
Experiment [11] relates to Phosphatidylinositol 4,5-bisphosphate 3-kinase catalytic subunit alpha isoform (Homo sapiens), P42336 [H1047Y]. Briefly: Binding affinity to human partial length PIK3CA H1047Y mutant (R108 to N1068 residues) expressed in mammalian expression system assessed as residual binding level at 1 uM by Kinomescan method relative to control.
Experiment [12] deals with Cyclin-dependent kinase 13 (Homo sapiens) (UniProt Q14004). As to the kind of experiment: Binding affinity to wild-type human partial length CDC2L5 (H675 to S1054 residues) expressed in mammalian expression system assessed as residual binding level at 1 uM by Kinomescan method relative to control.
The target in experiment [13] is Cytoplasmic tyrosine-protein kinase BMX (Homo sapiens) (UniProt P51813). As to the kind of experiment: Binding affinity to wild-type human full length BMX (M1 to H675 residues) expressed in bacterial expression system assessed as residual binding level at 1 uM by Kinomescan method relative to control.
Sequence of Cytoplasmic tyrosine-protein kinase BMX (Homo sapiens) (P51813 whole entry, the tested form may be a part): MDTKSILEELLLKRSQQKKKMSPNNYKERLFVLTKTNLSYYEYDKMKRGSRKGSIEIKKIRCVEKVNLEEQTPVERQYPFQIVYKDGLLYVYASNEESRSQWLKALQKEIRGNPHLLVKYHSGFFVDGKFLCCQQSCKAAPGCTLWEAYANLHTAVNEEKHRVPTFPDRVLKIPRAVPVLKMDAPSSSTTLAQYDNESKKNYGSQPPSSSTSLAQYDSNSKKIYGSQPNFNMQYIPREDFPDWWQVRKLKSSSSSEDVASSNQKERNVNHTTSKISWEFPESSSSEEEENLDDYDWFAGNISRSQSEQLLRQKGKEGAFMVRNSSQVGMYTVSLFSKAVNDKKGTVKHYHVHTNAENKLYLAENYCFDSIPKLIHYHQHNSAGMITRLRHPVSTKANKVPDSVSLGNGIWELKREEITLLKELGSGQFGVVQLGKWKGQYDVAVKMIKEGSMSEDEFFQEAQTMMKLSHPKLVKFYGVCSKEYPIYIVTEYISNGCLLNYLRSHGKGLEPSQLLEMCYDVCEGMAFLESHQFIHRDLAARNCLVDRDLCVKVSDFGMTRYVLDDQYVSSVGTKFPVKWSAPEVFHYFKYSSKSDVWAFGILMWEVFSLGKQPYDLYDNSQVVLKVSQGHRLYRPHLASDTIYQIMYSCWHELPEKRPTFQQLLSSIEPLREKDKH
Experiment [14] has as its target Epithelial discoidin domain-containing receptor 1 (Homo sapiens) (UniProt Q08345). Briefly: Binding affinity to wild-type human partial length DDR1 (R565 to V876 residues) expressed in bacterial expression system assessed as residual binding level at 1 uM by Kinomescan method relative to control.
The target in experiment [15] is Peripheral plasma membrane protein CASK (Homo sapiens) (UniProt O14936). Briefly: Binding affinity to wild-type human partial length CASK (M1 to H315 residues) expressed in mammalian expression system assessed as residual binding level at 1 uM by Kinomescan method relative to control.
The target of experiment [16] is Calcium/calmodulin-dependent protein kinase kinase 2 (Homo sapiens) (UniProt Q96RR4). Briefly: Binding affinity to wild-type human partial length CAMKK2 (D65 to V471 residues) expressed in bacterial expression system assessed as residual binding level at 1 uM by Kinomescan method relative to control.
Sequence of Calcium/calmodulin-dependent protein kinase kinase 2 (Homo sapiens) (Q96RR4 2-588 limits assumed): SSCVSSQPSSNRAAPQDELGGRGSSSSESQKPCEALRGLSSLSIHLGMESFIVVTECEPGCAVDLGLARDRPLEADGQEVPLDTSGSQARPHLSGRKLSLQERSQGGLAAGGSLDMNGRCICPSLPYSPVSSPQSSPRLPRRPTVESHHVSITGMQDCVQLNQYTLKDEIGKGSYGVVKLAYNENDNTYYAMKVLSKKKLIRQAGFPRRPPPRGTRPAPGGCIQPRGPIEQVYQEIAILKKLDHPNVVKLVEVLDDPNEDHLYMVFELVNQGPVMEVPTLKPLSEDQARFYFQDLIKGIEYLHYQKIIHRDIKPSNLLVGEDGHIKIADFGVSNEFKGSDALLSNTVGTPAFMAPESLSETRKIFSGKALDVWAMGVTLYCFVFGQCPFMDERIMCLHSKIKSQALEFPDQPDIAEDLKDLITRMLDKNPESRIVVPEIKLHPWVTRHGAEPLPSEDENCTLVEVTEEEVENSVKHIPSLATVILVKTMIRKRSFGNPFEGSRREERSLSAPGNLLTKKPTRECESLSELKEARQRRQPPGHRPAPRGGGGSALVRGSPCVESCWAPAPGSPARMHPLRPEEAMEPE
The target in experiment [17] is Serine/threonine-protein kinase 26 (Homo sapiens) (UniProt Q9P289). As to the kind of experiment: Binding affinity to wild-type human full length MST4 (M1 to P416 residues) expressed in mammalian expression system assessed as residual binding level at 1 uM by Kinomescan method relative to control.
The target of experiment [18] is Serine/threonine-protein kinase RIO3 (Homo sapiens) (UniProt O14730). Briefly: Binding affinity to wild-type human full length RIOK3 (M1 to E519 residues) expressed in bacterial expression system assessed as residual binding level at 1 uM by Kinomescan method relative to control.
Experiment [19] has as its target Mitogen-activated protein kinase kinase kinase 11 (Homo sapiens) (UniProt Q16584). Briefly: Binding affinity to wild-type human partial length MLK3 (I77 to W399 residues) expressed in bacterial expression system assessed as residual binding level at 1 uM by Kinomescan method relative to control.
Experiment [20] concerns Mast/stem cell growth factor receptor Kit (Homo sapiens), P10721 [D816V]. As to the kind of experiment: Binding affinity to human partial length KIT D816V mutant (I571 to D952 residues) expressed in bacterial expression system assessed as residual binding level at 1 uM by Kinomescan method relative to control.
Experiment [21] has as its target Macrophage-stimulating protein receptor (Homo sapiens) (UniProt Q04912). As to the kind of experiment: Binding affinity to wild-type human partial length MST1R (I1057 to L1363 residues) expressed in bacterial expression system assessed as residual binding level at 1 uM by Kinomescan method relative to control.
Experiment [22] deals with Serine/threonine-protein kinase LATS2 (Homo sapiens) (UniProt Q9NRM7). As to the kind of experiment: Binding affinity to wild-type human partial length LATS2 (Q641 to V1088 residues) expressed in mammalian expression system assessed as residual binding level at 1 uM by Kinomescan method relative to control.
The target of experiment [23] is Serine/threonine-protein kinase PAK 4 (Homo sapiens) (UniProt O96013). Briefly: Binding affinity to wild-type human partial length PAK4 (Q144 to R438 residues) expressed in bacterial expression system assessed as residual binding level at 1 uM by Kinomescan method relative to control.
For experiment [24], the target named is Mitogen-activated protein kinase kinase kinase kinase 4 (Homo sapiens) (UniProt O95819). As to the kind of experiment: Binding affinity to wild-type human partial length MAP4K4 (M1 to R310 residues) expressed in bacterial expression system assessed as residual binding level at 1 uM by Kinomescan method relative to control.

Sequence of Serine/threonine-protein kinase tousled-like 1 (Homo sapiens) (Q9UKI8 whole entry, the tested form may be a part, canonical isoform): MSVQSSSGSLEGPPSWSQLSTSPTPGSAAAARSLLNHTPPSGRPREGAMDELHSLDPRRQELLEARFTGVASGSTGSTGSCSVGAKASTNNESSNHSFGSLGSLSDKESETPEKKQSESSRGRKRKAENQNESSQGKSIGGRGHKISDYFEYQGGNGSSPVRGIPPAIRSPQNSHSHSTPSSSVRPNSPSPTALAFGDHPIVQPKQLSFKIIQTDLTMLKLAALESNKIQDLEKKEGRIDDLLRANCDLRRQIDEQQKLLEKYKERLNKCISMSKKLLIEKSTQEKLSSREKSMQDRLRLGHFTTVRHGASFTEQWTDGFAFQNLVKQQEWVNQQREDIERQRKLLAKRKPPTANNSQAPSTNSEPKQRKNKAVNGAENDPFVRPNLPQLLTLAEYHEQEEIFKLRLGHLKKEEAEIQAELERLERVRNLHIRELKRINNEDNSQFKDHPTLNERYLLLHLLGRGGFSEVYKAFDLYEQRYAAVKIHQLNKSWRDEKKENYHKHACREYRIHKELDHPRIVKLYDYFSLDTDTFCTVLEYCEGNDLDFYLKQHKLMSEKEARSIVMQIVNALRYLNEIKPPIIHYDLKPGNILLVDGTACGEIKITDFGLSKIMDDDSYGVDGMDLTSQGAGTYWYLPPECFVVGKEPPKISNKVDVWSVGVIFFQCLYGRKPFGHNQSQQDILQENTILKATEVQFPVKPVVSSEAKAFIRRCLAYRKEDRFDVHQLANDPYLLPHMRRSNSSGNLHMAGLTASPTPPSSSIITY
Sequence of Serine/threonine-protein kinase STK11 (Homo sapiens) (Q15831 whole entry, the tested form may be a part, canonical isoform): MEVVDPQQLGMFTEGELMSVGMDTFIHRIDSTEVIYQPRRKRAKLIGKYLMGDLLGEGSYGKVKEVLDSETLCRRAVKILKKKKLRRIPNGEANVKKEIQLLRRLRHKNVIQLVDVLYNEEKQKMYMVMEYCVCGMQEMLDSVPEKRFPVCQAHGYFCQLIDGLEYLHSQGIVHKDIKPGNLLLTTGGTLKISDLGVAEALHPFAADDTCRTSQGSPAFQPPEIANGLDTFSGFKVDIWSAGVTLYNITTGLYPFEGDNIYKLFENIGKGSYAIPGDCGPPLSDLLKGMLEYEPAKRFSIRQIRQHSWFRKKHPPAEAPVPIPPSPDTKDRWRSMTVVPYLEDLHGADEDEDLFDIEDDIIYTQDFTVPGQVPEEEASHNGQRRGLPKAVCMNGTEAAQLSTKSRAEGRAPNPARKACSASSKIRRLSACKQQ

For `CC(C)Nc1sc(C(=O)c2ccc(Cl)s2)c(N)c1C#N`, the Activity is 84% in experiment [1]; 62% in experiment [2]; 82% in [3]; 89% in experiment [4]; 72% in experiment [5]; 91% in [6]. Moreover, the Activity in experiment [7] was 100%; in experiment [8] it was 100%; in experiment [9], 100%; in experiment [10], 100%; in experiment [11], 100%; in experiment [12] it was 84%. In addition, the Activity came to 100% in [13]; 63% in experiment [14]; 100% in experiment [15]; 76% in [16]; 100% in [17]; 38% in [18]. Moreover, the Activity was determined as 100% in experiment [19]; 55% in experiment [20]; 98% in experiment [21]; 100% in [22]; 88% in experiment [23]; 46% in experiment [24].
